Reference: patent US5599808A, “Aqueous indolocarbazole solutions” (Cephalon, Inc., priority 1995, dated 1997)
Values after ≈ are worked out from the molar mass of the structure shown.

Experiments:
protein kinase = details: Berg et al. J. Biol. Chem. 267:13-16 (1992); cited from earlier work
[1] = cited from earlier work
[2] = Concentration of dissolved indolocarbazole obtained in aqueous solutions (HPLC); details: organic solvent or mixture
Method: In general, a solution of the concentrate can be prepared by combining a dispersant such as polyvinylpyrrolidone C-30 and a selected organic solvent such as propylene glycol into a beaker. The mixture is continuously stirred until completely dissolved. Solid PVP or other solution components may take 1-2 hours to dissolve completely at room temperature.
An amount of an indolocarbazole, for example, staurosporine, K-252a, or any one of indolocarbazole A, B, or C (Table 1) can each be individually weighed and added to a small aliquot of the aqueous solution, resulting in a 10 mg/ml solution after the indolocarbazole completely dissolves. Alternatively, a mixture of indolocarbazoles may be combined, weighed, and added to a small aliquot of the aqueous solution resulting in a 10 mg/ml solution after the indolocarbazole completely dissolves. An indolocarbazole solution can be stirred or shaken vigorously overnight. Any undissolved indolocarbazole is removed by standard centrifugation or filtration techniques. The concentration of solubilized indolocarbazole can be determined by reversed phase HPLC using a UV detector (290 nm).
The following HPLC conditions are used to determine the concentration of an indolocarbazole:
HPLC Column: Zorbax Rx C-18 4.6×250 mm, 5 micron particle size
Prior to injection of an indolocarbazole solution, there is allowed a 10 minute equilibration time.
Fifty g of PEG-400 were added to 50 ml of water and the mixture vigorously stirred until completely dissolved. One mg of either K-252a, staurosporine or the indolocarbazoles B or C (see Table 1) were added individually to a 100 μl aliquot of the PEG-400 solution and the resulting mixture was shaken overnight. The solution was clarified by centrifugation at 1000 rpm for 10 minutes. The supernatant was saved and any residue discarded. Ten μl of the supernatant was removed, diluted with DMSO (100:1) and the concentration of dissolved K-252a determined by HPLC.
Same as example 1 except that PEG-600 was used instead of PEG-400.
Same as example 1 except that PEG-1000 was used instead of PEG-400.
Same as example 1 except that 48 ml of water was used and 2 g of benzyl alcohol was added to the PEG-400 solution.
Same as example 2 except that 48 ml of water was used and 2 g of benzyl alcohol was added to the PEG-600 solution.
Same as example 3 except that 48 ml of water was used and 2 g of benzyl alcohol was added to the PEG-1000 solution.
2.5 g of benzyl alcohol was added to 47.5 g of PEG-400 and, in a separate container, 2.5 g of Pluronic F68 was added to 47.5 ml of water. Each solution was stirred until completely dissolved, then each solution was combined and stirred until homogeneous. One mg of K-252a was added to 100 μl of the solution and the resulting mixture was shaken overnight. The solution was clarified by centrifugation at 1000 rpm for 10 minutes. Ten (10) μl of supernatant was removed, diluted with DMSO (100:1), and the concentration of dissolved K-252a determined by HPLC.
Same as example 7 except that Pluronic™ L61 was used instead of Pluronic™ F68.
Same as example 7 except that Pluronic™ L64 was used instead of Pluronic™ F68.
Same as example 7 except that Tween™ 20 was used instead of Pluronic™ F68.
Same as example 7 except that Tween™ 80 was used instead of Pluronic™ F68.
Same as example 7 except that PVP was used instead of Pluronic™ F68 and PEG-300 was used instead of PEG-400.
Same as example 12 except that PEG-400 was used instead of PEG-300 and indolocarbazoles A, B or C were each solubilized individually in addition to K-252a.
Same as example 12 except that PEG-600 was used instead of PEG-300 and indolocarbazoles A, B or C were each solubilized individually in addition to K-252
Same as example 12 except that PEG-1000 was used instead of PEG-300.
Ten (10) g of Triton X-100 was added to 38 ml of water and the mixture was stirred thoroughly.

Question: Which results are given for COC(=O)C1(O)CC2OC1(C)n1c3ccccc3c3c4c(c5c6ccccc6n2c5c31)C(=O)NC4 (centres unmarked) [Compound K-252a]?
Answer: modulation of neurotrophin responses by affecting protein kinase activity (protein kinase): modulate neurotrophin responses; insolubility in water ([1]; Nakanishi et al.): insolubility; solubility in non-aqueous, toxic solvents ([1]; non-aqueous, toxic solvents): soluble in non-aqueous, toxic solvents; solubility in water ([1]; water): insoluble in water; solubility thermodynamic ([2]; 50% peg 400, 50% h2o, Concentration Obtained, Example 1: 50% PEG 400, 50% H2O, target 10 mg/ml): 1390 µg/mL (≈ 2.97 mM); solubility thermodynamic ([2]; 50% peg 600, 50% h2o, Concentration Obtained, Example 2: 50% PEG 600, 50% H2O, target 10 mg/ml): 1920 µg/mL (≈ 4.11 mM); solubility thermodynamic ([2]; 50% peg 1000, 50% h2o, Concentration Obtained, Example 3: 50% PEG 1000, 50% H2O, target 10 mg/ml): 1820 µg/mL (≈ 3.89 mM); solubility thermodynamic ([2]; peg 300/ba/pvp/h2o, Concentration Obtained, Example 12: 47.5% PEG 300, 2.5% BA, 2.5% PVP, 47.5% H2O, target 10 mg/ml): 9600 µg/mL (≈ 20.5 mM); solubility thermodynamic ([2]; peg 400/ba/h2o, Concentration Obtained, Example 4: 50% PEG 400, 2% BA, 48% H2O, target 10 mg/ml): 2080 µg/mL (≈ 4.45 mM); solubility thermodynamic ([2]; peg 400/ba/pluronic f68/h2o, Concentration Obtained, Example 7: 47.5% PEG 400, 2.5% BA, 2.5% Pluronic F68, 47.5% H2O, target 10 mg/ml): 5500 µg/mL (≈ 11.8 mM); solubility thermodynamic ([2]; peg 400/ba/pluronic l61/h2o, Concentration Obtained, Example 8: 47.5% PEG 400, 2.5% BA, 2.5% Pluronic L61, 47.5% H2O, target 10 mg/ml): 3500 µg/mL (≈ 7.49 mM); solubility thermodynamic ([2]; peg 400/ba/pluronic l64/h2o, Concentration Obtained, Example 9: 47.5% PEG 400, 2.5% BA, 2.5% Pluronic L64, 47.5% H2O, target 10 mg/ml): 1800 µg/mL (≈ 3.85 mM); solubility thermodynamic ([2]; peg 400/ba/pvp/h2o, Concentration Obtained, Example 13: 47.5% PEG 400, 2.5% BA, 2.5% PVP, 47.5% H2O, target 10 mg/ml): 10000 µg/mL (≈ 21.4 mM); solubility thermodynamic ([2]; peg 400/ba/tween 20/h2o, Concentration Obtained, Example 10: 47.5% PEG 400, 2.5% BA, 2.5% Tween 20, 47.5% H2O, target 10 mg/ml): 6000 µg/mL (≈ 12.8 mM); solubility thermodynamic ([2]; peg 400/ba/tween 80/h2o, Concentration Obtained, Example 11: 47.5% PEG 400, 2.5% BA, 2.5% Tween 80, 47.5% H2O, target 10 mg/ml): 3700 µg/mL (≈ 7.91 mM); solubility thermodynamic ([2]; peg 600/ba/h2o, Concentration Obtained, Example 5: 50% PEG 600, 2% BA, 48% H2O, target 10 mg/ml): 2720 µg/mL (≈ 5.82 mM); solubility thermodynamic ([2]; peg 600/ba/pvp/h2o, Concentration Obtained (saturation level), Example 20: 47.5% PEG 600, 2.5% BA, 2.5% PVP, 47.5% H2O, 10 mg added): 10000 µg/mL (≈ 21.4 mM); solubility thermodynamic ([2]; peg 600/ba/pvp/h2o, Concentration Obtained (saturation level), Example 22: 50% PEG 600, 2% BA, 10% PVP, 38% H2O, 10 mg added): 21200 µg/mL (≈ 45.3 mM); solubility thermodynamic ([2]; peg 600/ba/pvp/h2o, Concentration Obtained, Example 14: 47.5% PEG 600, 2.5% BA, 2.5% PVP, 47.5% H2O, target 10 mg/ml): 10000 µg/mL (≈ 21.4 mM); solubility thermodynamic ([2]; peg 600/ba/pvp/h2o, Concentration Obtained, Example 18: 50% PEG 600, 2% BA, 10% PVP, 38% H2O, target 10 mg/ml): 10000 µg/mL (≈ 21.4 mM); solubility thermodynamic ([2]; peg 600/ba/triton x-100/h2o, Concentration Obtained, Example 16: 50% PEG 600, 2% BA, 10% Triton X-100, 38% H2O, target 10 mg/ml): 10000 µg/mL (≈ 21.4 mM); solubility thermodynamic ([2]; peg 600/ba/tween 80/h2o, Concentration Obtained, Example 17: 50% PEG 600, 2% BA, 10% Tween 80, 38% H2O, target 10 mg/ml): 8830 µg/mL (≈ 18.9 mM); solubility thermodynamic ([2]; peg 1000/ba/h2o, Concentration Obtained, Example 6: 50% PEG 1000, 2% BA, 48% H2O, target 10 mg/ml): 1830 µg/mL (≈ 3.91 mM); solubility thermodynamic ([2]; peg 1000/ba/pvp/h2o, Concentration Obtained (saturation level), Example 21: 47.5% PEG 1000, 2.5% BA, 2.5% PVP, 47.5% H2O, 10 mg added): 14100 µg/mL (≈ 30.2 mM); solubility thermodynamic ([2]; peg 1000/ba/pvp/h2o, Concentration Obtained, Example 15: 47.5% PEG 1000, 2.5% BA, 2.5% PVP, 47.5% H2O, target 10 mg/ml): 10000 µg/mL (≈ 21.4 mM); solubility thermodynamic ([2]; peg 1000/ba/pvp/h2o, Concentration Obtained, Example 19: 40% PEG 1000, 2% BA, 10% PVP, 48% H2O, target 10 mg/ml): 10000 µg/mL (≈ 21.4 mM)
